The values below come from patent US20170296460A1, “METHOD OF IMPROVING THE APPEARANCE OF PERIORBITAL DYSCHROMIA” (The Procter & Gamble Company, priority 2016, published 2017).

This test relates to B16-F1 mouse melanoma cell line. As to the kind of experiment: B16 melanin synthesis inhibition assay. The note with it: B16-F1 cells, OD 410 nm. It is filed as cell-based. Here is the method:
In this example, a commercially available B16-F1 mouse melanoma cell line from American Tissue Culture Collection, Virginia, USA was employed in a conventional melanin synthesis inhibition assay. The cell culture medium used in the assay is 500 mL of Dulbecco's Modified Eagle's Medium (DMEM), 50 mL Fetal Bovine Serum (FBS), and 5 mL of penicillin-streptomycin liquid. B16-F1 cells that are cultured in this medium and grown to greater than 90% confluency will synthesize melanin. While not intending to be bound by any theory, it is hypothesized that the melanin synthesis is stimulated by the culture medium and/or stress induced by growth to a high confluency. […] Equipment used in the assay include a CO2 incubator, such as a Forma Series Model 3110 by Therma Scientific, Massachusetts, USA; a hemocytometer, such as a Bright Line model by Hauser Scientific, Pennsylvania, USA; and a UV-Visible Spectrum Plate Reader, such as a SpectraMax250 from Molecular Devices, California, USA. […] Day 3: The cells from the T-150 flask are trypsinized, and the concentration of cells is determined using the hemacytometer. […] Read the 96 well plate using the UV-Vis Plate Reader at 410 nm to optically measure the amount of melanin produced between wells that are treated with the pumpkin seed extract and control wells that are not. […] The concentration of test agent needed to provide the IC 50 is recorded.

For `Oc1ccc(OC2CCCCO2)cc1` (stereo not shown) [Deoxyarbutin], the “Concentration Needed for IC 50” value worked out at 0.008 v/v.
